Where a chain is given by its changes, count along the chain named.
Legend:
Type in all cases: binding
[1] = biological target: T1, STAT5b Arg566Trp/Met644Lys (Homo sapiens, UniProt P51692, M644K/R566W); assay: Fluorescence polarization assay, double mutant STAT5b Arg566Trp/Met644Lys; conditions: FP assay
T1 construct: made in house
T1 sequence (P51692 1-787 R566W/M644K): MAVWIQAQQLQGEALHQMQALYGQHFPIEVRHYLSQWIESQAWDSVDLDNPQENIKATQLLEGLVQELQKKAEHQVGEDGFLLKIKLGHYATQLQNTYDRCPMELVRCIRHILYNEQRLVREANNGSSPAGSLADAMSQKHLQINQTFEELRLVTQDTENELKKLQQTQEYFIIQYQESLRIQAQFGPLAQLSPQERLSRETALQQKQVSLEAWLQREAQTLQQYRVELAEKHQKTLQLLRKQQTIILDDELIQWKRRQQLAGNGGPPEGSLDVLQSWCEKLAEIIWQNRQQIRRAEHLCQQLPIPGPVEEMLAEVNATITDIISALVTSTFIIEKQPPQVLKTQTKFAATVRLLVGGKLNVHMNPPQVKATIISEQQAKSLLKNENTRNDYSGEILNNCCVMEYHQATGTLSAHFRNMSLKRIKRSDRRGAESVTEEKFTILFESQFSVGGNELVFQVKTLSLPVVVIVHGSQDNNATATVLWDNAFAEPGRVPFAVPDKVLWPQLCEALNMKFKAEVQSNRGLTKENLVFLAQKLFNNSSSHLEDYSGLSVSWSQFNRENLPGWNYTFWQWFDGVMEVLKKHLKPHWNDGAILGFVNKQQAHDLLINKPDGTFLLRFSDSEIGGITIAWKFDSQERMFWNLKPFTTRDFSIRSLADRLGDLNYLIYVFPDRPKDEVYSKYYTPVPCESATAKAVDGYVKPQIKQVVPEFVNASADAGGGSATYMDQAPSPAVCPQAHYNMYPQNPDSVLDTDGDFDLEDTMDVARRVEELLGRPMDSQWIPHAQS

[2] = biological target: T2, STAT5b Arg566Trp/Met639Asn/Met644Lys (STAT5b‐3M) (Homo sapiens, UniProt P51692, M639N/M644K/R566W); assay: Fluorescence polarization assay, triple mutant STAT5b-3M
T2 construct: made in house
T2 sequence (P51692 1-787 R566W/M639N/M644K): T1 sequence (P51692 1-787 R566W/M644K) with M639N

[3] = biological target: T3, STAT5b Arg566Trp/Gln636Pro/Met639Asn/Phe640Leu/Met644Lys/Asn664Ser/Tyr679Phe (STAT5b‐7M) (Homo sapiens, UniProt P51692, F640L/M639N/M644K/N664S/Q636P/R566W/Y679F); assay: Fluorescence polarization assay, mutant STAT5b-7M; conditions: FP assay
T3 construct: made in house
T3 sequence (P51692 1-787 R566W/Q636P/M639N/F640L/M644K/N664S/Y679F): T1 sequence (P51692 1-787 R566W/M644K) with Q636P, M639N, F640L, N664S, Y679F

COc1cc(-c2cc(OP(=O)(O)O)cc(-c3cc(OC)c(OC)c(OC)c3)c2)cc(OC)c1OC [Compound 20]
IC50 [1]: 128 ± 8 µM | Ki [1]: 63.1 ± 4.2 µM | IC50 ([2]; FP assay): 101 ± 11 µM | Ki ([2]; FP assay): 49 ± 5.4 µM | activity gap between STAT5b-3M and STAT5b-7M ([2]; FP assays): 2.5 fold | IC50 [3]: 42.6 ± 8.8 µM | Ki [3]: 21.1 ± 4.4 µM
